We go through 1 compound from US20240366640A1, “LYOPHILIZED FORMULATION SOLUTION AND LYOPHILIZED FORMULATION, AND METHOD AND USE THEREOF” (ASCENTAWITS PHARMACEUTICALS, LTD., priority 2021, published 2024).

One may read the Solubility as the dissolved amount per volume that the medium holds.

The nature of data set [1]: Solubility of TH-302 by the saturated solution method (HPLC, external standard). In kind it is physicochemical. As to the method: The solubility is measured in an experiment by the saturated solution method; that is, the solid TH-302 was directly charged into the solvent until insoluble matter or turbidity appears. After clarification for a period of time, the solution was directly filtered. The clarified filtrate was taken directly for determination of the concentration of TH-302. The resulting concentration is exactly the solubility of TH-302 in this solvent system. Please refer to Tables 1, 2, and 3 for specific solubility data.
For the method for measuring the concentration of TH-302 (mg/ml), please refer to the HPLC method described in the patent WO2008083101A1 owned by Threshold Pharmaceuticals Inc. (see Example 2. An Ethanol Formulation of TH302, for details); and the external standard method was used for quantification.

For data set [2] the following is noted: concentrate with 70% ethanol, 25% dimethlyacetamide, 5% polysorbate 80; mainly induced by dimethlyacetamide; WO2015013448A1; cited from earlier work.
Data set [3] in a line: Saturated solubility of the drug in D5W solution (strong shaking). The conditions noted are these: left to stand at room temperature for 24 hours. It is filed as physicochemical. As to the method: The TH-302 sample was weighed accurately in an amount of about 60 mg, placed in a transparent vial, and added with 6 ml of dextrose 5% in water (D5W). The resulting solution was shaked vigorously for 2 minutes to obtain a solubility-stock solution. It was observed that the solubility-stock solution contained insoluble substances. Thus, the solubility-preserving solution was filtered and then became clear. […] This value was exactly the saturated solubility of the drug in D5W solution.

Regarding `Cn1c(COP(=O)(NCCBr)NCCBr)cnc1[N+](=O)[O-]` [TH-302], the Solubility is 7.21 mg/mL in data set [1] (1% Tween 80 aqueous solution (volume ratio)) and 9.98 mg/mL in data set [1] (95% tert-butanol/5% ethanol (volume ratio), TH-302 purchased commercially). In addition, in data set [2], the TH-302 administration reactions result was “lip swelling and urticaria”. The “Appearance of the filtered filtrate” value in data set [3] is reported as “still clear”.
